ChEMBL document CHEMBL1201862, “PubChem BioAssay data set” (2004)
The source made the active and inactive calls.

What was measured:
Assay type in all cases: functional
Hexokinase HKDC1 = target: T1, Hexokinase HKDC1 (Homo sapiens, UniProt Q2TB90); experiment: activation of HKDC1 glucose phosphorylation – biochemical, W721R variant, dose response (AID 504730)
T1 sequence (Q2TB90 whole entry): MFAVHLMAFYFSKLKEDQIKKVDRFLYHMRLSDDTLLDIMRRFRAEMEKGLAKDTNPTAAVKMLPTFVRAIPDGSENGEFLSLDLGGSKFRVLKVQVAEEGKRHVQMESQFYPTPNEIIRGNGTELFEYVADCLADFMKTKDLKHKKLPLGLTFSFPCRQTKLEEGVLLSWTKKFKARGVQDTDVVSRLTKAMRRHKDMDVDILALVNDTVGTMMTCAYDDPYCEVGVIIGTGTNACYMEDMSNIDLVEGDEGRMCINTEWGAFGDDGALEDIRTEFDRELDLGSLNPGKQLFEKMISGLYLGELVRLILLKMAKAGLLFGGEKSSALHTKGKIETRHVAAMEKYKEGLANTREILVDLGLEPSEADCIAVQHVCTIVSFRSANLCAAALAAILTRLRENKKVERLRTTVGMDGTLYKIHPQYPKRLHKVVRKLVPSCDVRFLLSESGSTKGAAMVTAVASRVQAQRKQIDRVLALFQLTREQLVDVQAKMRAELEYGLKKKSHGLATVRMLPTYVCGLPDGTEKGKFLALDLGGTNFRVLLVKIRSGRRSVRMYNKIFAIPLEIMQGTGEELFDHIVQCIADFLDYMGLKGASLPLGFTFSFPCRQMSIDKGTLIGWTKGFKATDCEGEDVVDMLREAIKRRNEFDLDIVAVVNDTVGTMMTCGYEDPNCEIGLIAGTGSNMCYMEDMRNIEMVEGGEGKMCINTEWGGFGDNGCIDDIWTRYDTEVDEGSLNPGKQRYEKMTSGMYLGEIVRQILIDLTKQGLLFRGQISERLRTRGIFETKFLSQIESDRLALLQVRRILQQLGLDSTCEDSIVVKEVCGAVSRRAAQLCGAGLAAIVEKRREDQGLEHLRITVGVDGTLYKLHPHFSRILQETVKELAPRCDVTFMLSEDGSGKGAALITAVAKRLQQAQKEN

Hexokinase-1 = target: T2, Hexokinase-1 (Homo sapiens, UniProt P19367); experiment: HK1 enzyme activation by HKDC1 hits – biochemical, selectivity assay for HKDC1 activator project, dose response (AID 504762)
T2 sequence (P19367 whole entry): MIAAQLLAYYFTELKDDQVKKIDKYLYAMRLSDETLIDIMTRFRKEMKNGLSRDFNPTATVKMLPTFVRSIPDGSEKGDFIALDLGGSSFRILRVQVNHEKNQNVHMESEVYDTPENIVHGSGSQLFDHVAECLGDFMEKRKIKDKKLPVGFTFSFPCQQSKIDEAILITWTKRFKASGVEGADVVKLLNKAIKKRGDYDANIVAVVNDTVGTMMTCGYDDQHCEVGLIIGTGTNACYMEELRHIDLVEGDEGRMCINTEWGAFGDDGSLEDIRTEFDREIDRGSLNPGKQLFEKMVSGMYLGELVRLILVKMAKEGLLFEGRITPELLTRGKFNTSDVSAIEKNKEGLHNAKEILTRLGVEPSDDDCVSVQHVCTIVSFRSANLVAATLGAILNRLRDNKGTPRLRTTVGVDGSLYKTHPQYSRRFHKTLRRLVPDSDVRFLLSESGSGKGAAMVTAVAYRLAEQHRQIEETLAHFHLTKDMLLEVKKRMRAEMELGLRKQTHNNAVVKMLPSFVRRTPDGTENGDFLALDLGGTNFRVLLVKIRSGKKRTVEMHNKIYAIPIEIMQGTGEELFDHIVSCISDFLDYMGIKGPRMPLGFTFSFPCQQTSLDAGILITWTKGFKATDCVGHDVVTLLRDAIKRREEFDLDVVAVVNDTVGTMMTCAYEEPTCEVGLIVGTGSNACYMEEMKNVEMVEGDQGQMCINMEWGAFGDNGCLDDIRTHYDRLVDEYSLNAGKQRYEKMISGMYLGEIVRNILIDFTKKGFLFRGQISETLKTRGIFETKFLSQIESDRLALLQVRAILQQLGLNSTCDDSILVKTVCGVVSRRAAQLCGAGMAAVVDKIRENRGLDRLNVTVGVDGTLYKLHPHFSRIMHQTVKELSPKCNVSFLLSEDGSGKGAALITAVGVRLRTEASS

[1] = viability of HCT116 lacking mutant beta-catenin – cell-based, human colon tumor, dose response (AID 1045);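 note: HCT116 colon tumor cells with beta catenin knocked out; cells exposed to compound for 60 hours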
[2] = viability of PTEN-deleted HCT116 cells – cell-based, HCT116 PTEN knockout, dose response (AID 1047);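 note: HCT116 colon tumor cells with PTEN knocked out; cells exposed to compound for 60 hours before readout; potency for loss of cell viability measured by luminescence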

Compound | EC50 (Hexokinase HKDC1) | EC50 (Hexokinase-1) | EC50 [1] | EC50 [2]
Cn1cnnc1SC1c2cccc3cccc(c23)C1NS(=O)(=O)c1ccccc1 (stereo unspecified) | 46.7 µM (inactive) | 24.7 µM (inactive) |  | 
Fc1ccc(NC2=NN=C(c3cc(F)ccc3F)CS2)cc1 | 35.7 µM (inactive) | 28.9 µM (inactive) | 20.1 µM (active) | 18.5 µM (active)
